Test results published in BindingDB's records for doi:10.1021/jm701487t (F. Hoffmann-La Roche, 2008).

Target: Cannabinoid receptor 2 (Homo sapiens, UniProt P34972)
Sequence (P34972 whole entry): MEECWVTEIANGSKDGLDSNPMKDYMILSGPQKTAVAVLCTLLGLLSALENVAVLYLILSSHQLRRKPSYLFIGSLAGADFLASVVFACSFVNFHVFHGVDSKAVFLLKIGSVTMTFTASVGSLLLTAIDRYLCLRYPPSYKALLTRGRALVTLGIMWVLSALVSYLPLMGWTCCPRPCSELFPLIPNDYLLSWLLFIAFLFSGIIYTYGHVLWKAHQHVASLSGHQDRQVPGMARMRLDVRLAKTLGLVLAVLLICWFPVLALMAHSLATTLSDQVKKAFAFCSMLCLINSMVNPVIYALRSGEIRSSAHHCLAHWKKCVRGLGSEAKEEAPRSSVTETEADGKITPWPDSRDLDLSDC

Ki: 3 nM
SMILES: O=C(c1cc2c(cc1F)OC(c1ccc(F)cc1)(c1ccc(Cl)cc1Cl)O2)N1CCOCC1 (stereo unspecified) [CAS_24828562]
